This data set can be described thus: Pharmacokinetic experiment of memantine paroxetine cocrystal salt in rats (plasma memantine by LC-MS/MS). The following applies: gavage. The class given is in vivo, SD rat. An excerpt: Determination of the pharmacokinetic parameters of […] and paroxetine in rat plasma by LC-MS/MS method
The memantine paroxetine cocrystal salt prepared in embodiment 1; memantine hydrochloride; dexamethasone (Intermediate inspection office); ammonium formate; methanol is all chromatographic pure (Merck Company); formic acid is all chromatographic pure (Aladdin Company); acetonitrile is all chromatographic pure (Merck Company); experimental water is deionized purified water.
SD rat, SPF grade, male, weight 200-250 g, purchased from Zhejiang Experimental Animal Center, production license No.: SCXK (Zhejiang) 2014-0001.
Liquid mass spectrometer: Thermo Finnigan TSQ Quantum, composed of Surveyor As, Surveyor MS Pump Plus and TSQ Quantum, Thermo Fisher Scientific Company; Sartorius BP-211D electronic balance; Thermo STRATOS high speed freezing centrifuge; Eppendorf PCB-11 micro vortex mixer; Milli-Q Grandient pure water meter.
Chromatographic column: Waters Cortecs C18 (2.1 mm×50 mm, 2.7 μm); column temperature: 35° C.; mobile phase: acetonitrile-[…] ammonium formate containing 0.1% formic acid (10:90); flow rate: 0.2 mL·min^−1; sample injection volume: 5 μL.
Ion detection method: multiple reaction monitoring (MRM); ionic polarity: positive ion (Positive); ionization mode: electrospray ionization (ESI); ionization voltage (IS): 3000.0V; temperature: 300° C.; sheath gas: 35; auxiliary gas: 30.
10 rats are randomly divided into 2 groups, 5 rats in each group: group A: 5.6 mg/kg memantine hydrochloride; group B: 17.4 mg/kg cocrystal salt;
The rats are fasted for 12 h before the experiment, and the tested drugs re given by gavage with the volume of 1 mL/100 g. Before and 5, 10, 20, 40, 60, 120, 180, 240, 360 and 480 min after administration, 0.5 mL of blood is collected through the fundus vein plexus. Anticoagulate the heparin. Centrifugate at 4000 rpm for 10 min, and separate the plasma. It can be used for the determination of memantine concentration.

Where [1] appears, read: male SD rats, same molar dose: group A 5.6 mg/kg memantine hydrochloride, group B 17.4 mg/kg cocrystal salt, average value.

The structures appear in SMILES notation. Like-named read-outs stand apart in the source and are kept apart here.

For `CC12CC3CC(C)(C1)CC(N)(C3)C2.Fc1ccc([C@@H]2CCNC[C@H]2COc2ccc3c(c2)OCO3)cc1.O.O.O.O=S(=O)(O)O` [cocrystal salt, C19H20FNO3·C12H21N·H2SO4·3H2O], under setting [1], the AUC(0-t) (usually exposure summed from dosing to a finite time, without extrapolation to infinity) was determined as 1.982124 ng·h/mL; the “AUC(0-∞)” value was found to be 3.16723 ng·h/mL; the CLz/F is 94414.6 mL/min/kg; the Cmax (in general, the maximum level reached in the sampled fluid or tissue) stood at 0.449186 ng/mL. Further, under setting [1], the “MRT(0-t)” value was 3.298 h; the “MRT(0-∞)” value is 8.1 h; the T1/2z is 5.605 h; the time of peak concentration (Tmax) (in general, the time from dosing to the highest level) came out at 0.868 h. Also, under “same molar dose, rats”, the “AUC(0-∞) ratio, cocrystal salt versus memantine hydrochloride” value is reported as 4.10 times; the “Cmax ratio, cocrystal salt versus memantine hydrochloride” value came to 1.62 times; the “T1/2 ratio, cocrystal salt versus memantine hydrochloride” value is 2.79 times; the “Tmax ratio, cocrystal salt versus memantine hydrochloride” value was 1.41 times.
On to `CC12CC3CC(C)(C1)CC(N)(C3)C2.Cl` [memantine hydrochloride, 3,5-Dimethyl-1-aminoadamantane hydrochloride, reference compound], for which the AUC(0-inf) (as a rule, total exposure, with the tail of the curve extrapolated) (Sprague-Dawley (SD), rat, po, male SD rats, same molar dose: group A 5.6 mg/kg memantine hydrochloride, group B 17.4 mg/kg cocrystal salt, average value) was determined as 0.773 ng·h/mL. The AUC(0-t) (Sprague-Dawley (SD), rat, po, male SD rats, same molar dose: group A 5.6 mg/kg memantine hydrochloride, group B 17.4 mg/kg cocrystal salt, average value, read-out: AUC(0-t)) turned out to be 0.714 ng·h/mL. In addition, the peak concentration (Cmax) (Sprague-Dawley (SD), rat, po, male SD rats, same molar dose: group A 5.6 mg/kg memantine hydrochloride, group B 17.4 mg/kg cocrystal salt, average value, read-out: Cmax) worked out at 0.276 ng/mL. Further, the MRT last (Sprague-Dawley (SD), rat, po, male SD rats, same molar dose: group A 5.6 mg/kg memantine hydrochloride, group B 17.4 mg/kg cocrystal salt, average value, read-out: MRT(0-t)) stood at 2.43 h. The MRT inf (Sprague-Dawley (SD), rat, po, male SD rats, same molar dose: group A 5.6 mg/kg memantine hydrochloride, group B 17.4 mg/kg cocrystal salt, average value, read-out: MRT(0-∞)) came to 3.05 h. The time of peak concentration (Tmax) (Sprague-Dawley (SD), rat, po, male SD rats, same molar dose: group A 5.6 mg/kg memantine hydrochloride, group B 17.4 mg/kg cocrystal salt, average value, read-out: Tmax) is 0.617 h. Under setting [1], the CLz/F amounted to 123437.1 mL/min/kg and the T1/2z turned out to be 2.009 h.

Values taken from patent US11839607B2, “Memantine paroxetine cocrystal salt and its preparation method, pharmaceutical composition and application” (priority 2018, dated 2023).
